What was measured:
galium [1] = experiment: Test A postemergence; type: in vivo, Galium aparine; conditions: 0 to 100 scale, 0 no effect, 100 complete control
In short: (§1)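 Visual injury scored 0–100 (100 = complete control) against untreated controls about 10 days after treatment in a greenhouse. Test chemicals, formulated with surfactant in non-phytotoxic solvent, were sprayed on soil preemergence or on 2-10 cm, one- to two-leaf plants postemergence.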

Italian ryegrass [2] = experiment: Test A postemergence; type: in vivo, Lolium multiflorum; conditions: 0 to 100 scale, 0 no effect, 100 complete control
In short: as §1

blackgrass [3] = experiment: Test C preemergence; type: in vivo, Alopecurus myosuroides; conditions: for Blackgrass plant response rating: preemergence
In short: (§2)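 Greenhouse herbicide screen. Pre: seeded loam/sand, sprayed at planting. Post: 1–4 leaf plants (2–18 cm) in peat-based mix. Formulation: solvent mixture + surfactant, non-phytotoxic. Readout: visual % control vs untreated, 13–15 d; dash = not tested.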

yellow nutsedge = experiment: Test C preemergence; type: in vivo, Cyperus esculentus; conditions: for Nutsedge, Yellow plant response rating: preemergence
In short: as §2

pigweed = experiment: Test C preemergence; type: in vivo, Amaranthus retroflexus; conditions: for Pigweed plant response rating: preemergence
In short: as §2

lambsquarters = experiment: Test C preemergence; type: in vivo, Chenopodium album; conditions: for Lambsquarters plant response rating: preemergence
In short: as §2

waterhemp = experiment: Test C preemergence; type: in vivo, Amaranthus rudis; conditions: for Waterhemp plant response rating: preemergence
In short: as §2

large (Lg) crabgrass = experiment: Test C preemergence; type: in vivo, Digitaria sanguinalis; conditions: for Crabgrass, Large plant response rating: preemergence
In short: as §2

blackgrass [4] = experiment: Test A postemergence; type: in vivo, Alopecurus myosuroides; conditions: 0 to 100 scale, 0 no effect, 100 complete control
In short: as §1

johnsongrass = experiment: Test C preemergence; type: in vivo, Sorghum halepense; conditions: for Johnsongrass plant response rating: preemergence
In short: as §2

galium [5] = experiment: Test C preemergence; type: in vivo, Galium aparine; conditions: for Galium plant response rating: preemergence
In short: as §2

ragweed [6] = experiment: Test C preemergence; type: in vivo, Ambrosia elatior; conditions: for Ragweed plant response rating: preemergence
In short: as §2

barnyardgrass = experiment: Test C preemergence; type: in vivo, Echinochloa crus-galli; conditions: for Barnyardgrass plant response rating: preemergence
In short: as §2

giant foxtail = experiment: Test C preemergence; type: in vivo, Setaria faberii; conditions: for Foxtail, Giant plant response rating: preemergence
In short: as §2

Italian ryegrass [7] = experiment: Test A preemergence; type: in vivo, Lolium multiflorum
In short: as §1

corn = experiment: Test C preemergence; type: in vivo, Zea mays; conditions: for Corn plant response rating: preemergence
In short: as §2

ragweed [8] = experiment: Test A preemergence; type: in vivo, Ambrosia elatior
In short: as §1

oilseed rape = experiment: Test C preemergence; type: in vivo, Brassica napus; conditions: for Oilseed Rape plant response rating: preemergence
In short: as §2

[9] = 16 g ai/ha, scale 0 to 100 (0 no effect, 100 complete control)
[10] = 125 g ai/ha, scale 0 (no effect) to 100 (complete control)
[11] = Preemergence, 62 g ai/ha, scale 0 to 100, 0 no effect, 100 complete control
[12] = 31 g ai/ha, 0 to 100 scale where 0 is no effect and 100 is complete control, visual, approximately 10 days

FC(F)Oc1cnn(-c2c(Cl)cccc2Oc2ncc(Cl)cn2)c1 [Compound 258]
45: Barnyardgrass plant response rating (barnyardgrass; [9]) | Plant response rating, Corn (corn; [11])
40: Ragweed plant response rating (0 to 100 scale) (ragweed [8]; 125 g ai/ha)
80: Galium plant response rating (galium [5]; [9]) | Plant response rating, Ragweed (ragweed [6]; [11]) | Oilseed Rape plant response rating (oilseed rape; [9])
65: Lambsquarters plant response rating (lambsquarters; [9]) | Corn plant response rating (corn; [10])
50: Plant response rating, Blackgrass (blackgrass [4]; 125 g ai/ha)
100: Nutsedge, Yellow plant response rating (yellow nutsedge; [10]) | Pigweed plant response rating (pigweed; [9]) | Pigweed plant response rating (pigweed; [10]) | Plant response rating, Pigweed (pigweed; [11]) | Waterhemp plant response rating (waterhemp; [9]) | Waterhemp plant response rating (waterhemp; [10]) | Crabgrass, Large plant response rating (large (Lg) crabgrass; [9]) | Crabgrass, Large plant response rating (large (Lg) crabgrass; [10]) | Plant response rating, Crabgrass, Large (large (Lg) crabgrass; [11]) | Galium plant response rating (galium [5]; [10]) | Plant response rating, Galium (galium [5]; [11]) | Barnyardgrass plant response rating (barnyardgrass; [10]) | Foxtail, Giant plant response rating (giant foxtail; [10]) | Plant response rating, Foxtail, Giant (giant foxtail; [11]) | Oilseed Rape plant response rating (oilseed rape; [10]) | Plant response rating, Oilseed Rape (oilseed rape; [11])
90: Plant response rating, Galium (galium [1]; 125 g ai/ha) | Blackgrass plant response rating (blackgrass [3]; [10]) | Plant response rating, Blackgrass (blackgrass [3]; [11]) | Johnsongrass plant response rating (johnsongrass; [10]) | Ragweed plant response rating (ragweed [6]; [10]) | Plant response rating, Barnyardgrass (barnyardgrass; [11])
98: Lambsquarters plant response rating (lambsquarters; [10]) | Plant response rating, Lambsquarters (lambsquarters; [11]) | Plant response rating, Waterhemp (waterhemp; [11])
0: Plant response rating, Ryegrass, Italian (Italian ryegrass [2]; 31 g ai/ha) | Blackgrass plant response rating (blackgrass [3]; [9]) | Ragweed plant response rating (ragweed [6]; [9]) | Plant response rating, Ryegrass, Italian (Italian ryegrass [7]; [12]) | Corn plant response rating (corn; [9]) | Plant response rating, Ragweed (ragweed [8]; [12])
20: Plant response rating, Ryegrass, Italian (Italian ryegrass [2]; 125 g ai/ha) | Plant response rating, Blackgrass (blackgrass [4]; 31 g ai/ha)
95: Plant response rating, Nutsedge, Yellow (yellow nutsedge; [11])
70: Plant response rating, Galium (galium [1]; 31 g ai/ha)
5: Nutsedge, Yellow plant response rating (yellow nutsedge; [9]) | Johnsongrass plant response rating (johnsongrass; [9])
10: Ryegrass, Italian plant response rating (0 to 100 scale) (Italian ryegrass [7]; 125 g ai/ha)
75: Plant response rating, Johnsongrass (johnsongrass; [11]) | Foxtail, Giant plant response rating (giant foxtail; [9])

Reference: patent US9695155B2, “Herbicidal substituted pyrimidinyloxy benzene compounds” (E. I. DU PONT DE NEMOURS AND COMPANY, priority 2013, dated 2017)
